According to PubChem BioAssay (NCI):
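Assay format: 96-well plates, 48-hour exposure. GI50 is the concentration that inhibits growth by half. TGI: concentration producing complete growth inhibition.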

What was measured:
Assay in all cases: NCI anticancer screen, dose series, 48 h
U251 CNS = test system: U251 CNS
CAKI-1 renal = test system: CAKI-1 renal
SNB-19 CNS = test system: SNB-19 CNS
SNB-75 CNS = test system: SNB-75 CNS
A498 renal = test system: A498 renal
EKVX NSCLC = test system: EKVX NSCLC
SN12C renal = test system: SN12C renal
HCC-2998 colon = test system: HCC-2998 colon
MALME-3M melanoma = test system: MALME-3M melanoma
HOP-92 NSCLC = test system: HOP-92 NSCLC

Row | SMILES | GI50 (U251 CNS) | TGI (U251 CNS) | GI50 (CAKI-1 renal) | TGI (CAKI-1 renal) | GI50 (SNB-19 CNS) | TGI (SNB-19 CNS) | GI50 (SNB-75 CNS) | TGI (SNB-75 CNS) | GI50 (A498 renal) | TGI (A498 renal) | GI50 (EKVX NSCLC) | TGI (EKVX NSCLC) | GI50 (SN12C renal) | TGI (SN12C renal) | GI50 (HCC-2998 colon) | TGI (HCC-2998 colon) | GI50 (MALME-3M melanoma) | TGI (MALME-3M melanoma) | GI50 (HOP-92 NSCLC) | TGI (HOP-92 NSCLC)
1 | COc1ccc(-c2c[nH]c(=S)n2-c2ccc(OC)cc2)cc1 | > 50 µM | > 50 µM | > 50 µM | > 50 µM | > 50 µM | > 50 µM | > 50 µM | > 50 µM | > 50 µM | > 50 µM | > 50 µM | > 50 µM | > 50 µM | > 50 µM |  |  |  |  |  | 
2 | Cc1ccc(S(=O)(=O)NCCNc2nccc(-c3c(-c4ccc(F)cc4)nc4sccn34)n2)cc1 | 4.72 µM | 22.6 µM |  |  | 9.41 µM | 48.4 µM | 2.65 µM | 15 µM | 2.33 µM | 14.4 µM |  |  | 4.78 µM | > 100 µM | > 100 µM | > 100 µM | 5.07 µM | > 100 µM |  | 
3 | C[n+]1cc(C(O)c2ccc3c(c2)OCO3)c2ccccc2c1 (stereo not drawn) |  | > 100 µM |  | 69.4 µM |  | > 100 µM |  | > 100 µM |  | > 100 µM |  | > 100 µM |  | > 100 µM |  | > 100 µM |  | 65 µM |  | 
4 | C=C1C[C@]23CCC4C(C)(C)C(=O)CC[C@]4(C)C2C[C@H]1C(O)C3=O (stereo partly drawn) |  | > 75 µM |  |  |  | > 75 µM |  | > 75 µM |  | > 75 µM |  | > 75 µM |  | > 75 µM |  |  |  | > 75 µM |  | 
5 | O=[N+]([O-])c1ccc2c(c1)C(c1ccccc1Cl)=Nc1cn[nH]c1N2 | 9.91 µM | > 25 µM | 12.7 µM | > 25 µM | > 25 µM | > 25 µM | 0.618 µM | > 21.2 µM | 8.27 µM | > 23.3 µM |  |  | 19.8 µM | > 25 µM | 24.7 µM | > 25 µM | > 25 µM | > 25 µM |  | 
6 | Cc1cc(S(=O)(=O)N/N=C(\Sc2cc(Cl)c(C)cc2S(N)(=O)=O)c2ccc(Cl)cc2)c(Cl)cc1Cl | 53.1 µM | > 100 µM | 61.8 µM | > 100 µM | > 100 µM | > 100 µM |  |  | 57.1 µM | > 100 µM | > 100 µM | > 100 µM | 97.2 µM | > 100 µM |  |  |  |  | 47.6 µM | > 100 µM
7 | CN(C)C(=S)/N=c1\ss/c(=N\C(=S)N(C)C)n1-c1ccc(Cl)c(Cl)c1 |  | > 100 µM |  | > 100 µM |  | > 100 µM |  | 61.2 µM |  | > 100 µM |  | > 100 µM |  | > 100 µM |  | > 100 µM |  | > 100 µM |  | 
8 | COc1ccc2c(c1)[C@@]13CCCC[C@H]1[C@@H](C2)N(C)CC3=O |  | 58.9 µM |  | > 100 µM |  | > 100 µM |  |  |  |  |  | 43.4 µM |  | 50.4 µM |  | 31.5 µM |  | 33.1 µM |  | 28.4 µM
9 | CN(CCCNC(=O)Cc1ccc2ccc3cccc4ccc1c2c34)CCCNc1cc(-c2ccc3ccccc3c2)nc2ccccc12 | 1.6 µM | 3.05 µM | 1.8 µM | 3.55 µM | 1.74 µM | 3.18 µM | 1.45 µM | 2.75 µM | 1.66 µM | 3.19 µM |  |  | 1.68 µM | 3.29 µM | 1.48 µM | 2.98 µM |  |  | 1.41 µM | 3.02 µM
10 | O=c1[nH]cnc2cccc(Cl)c12 |  | > 100 µM |  | > 100 µM |  | > 100 µM |  | > 100 µM |  | > 100 µM |  | > 100 µM |  | > 100 µM |  | > 100 µM |  | > 100 µM |  | 
11 | COC(=O)OCC1OC(N2C(=O)NC(=O)C(Br)C2N=[N+]=[N-])CC1OC(=O)OC (stereo not drawn) |  | > 100 µM |  | > 100 µM |  | > 100 µM |  | > 100 µM |  |  |  |  |  | > 100 µM |  | > 100 µM |  | > 100 µM |  | > 100 µM
12 | O=c1[nH]c2cc(Cl)ccc2nc1/C(=N\O)C(O)c1ccc(Cl)cc1Cl (stereo not drawn) |  | > 100 µM |  | > 100 µM |  | > 100 µM |  | > 100 µM |  |  |  |  |  | > 100 µM |  | > 100 µM |  | > 100 µM |  | > 100 µM
13 | COc1cc(C)c2c(c1C)OC(=O)c1c(C)c(Cl)c(O)c(C=O)c1O2 |  |  |  | > 100 µM |  | > 100 µM |  | 46.8 µM |  | 33.2 µM |  | 26.4 µM |  | > 100 µM |  | 47.5 µM |  | 42.3 µM |  | 
14 | CN[C@@H](C)[C@H](NC)c1ccccc1 |  | > 100 µM |  | > 100 µM |  | > 100 µM |  | > 100 µM |  |  |  | > 100 µM |  | > 100 µM |  | > 100 µM |  | > 100 µM |  | > 100 µM
15 | Nc1ccn(C2(CO)C=C(CO)C(O)C2O)c(=O)n1 (stereo not drawn) |  | > 25.8 µM |  | > 25.8 µM |  | > 25.8 µM |  | > 25.8 µM |  | > 25.8 µM |  | > 25.8 µM |  | > 25.8 µM |  | > 25.8 µM |  | > 25.8 µM |  | 
16 | Cc1cc(C2CC(O)C(CO)O2)cc2c(=O)[nH]c(N)nc12 (stereo not drawn) | > 100 µM | > 100 µM | > 100 µM | > 100 µM | > 100 µM | > 100 µM | 81.3 µM | > 100 µM | > 100 µM | > 100 µM | > 100 µM | > 100 µM | > 100 µM | > 100 µM | > 100 µM | > 100 µM |  |  | > 100 µM | > 100 µM
17 | O=C1[C@H]2ON(c3ccccc3)C(c3ccc(Cl)cc3)[C@H]2C(=O)N1c1ccc(Cc2ccc(N3C(=O)[C@@H]4ON(c5ccccc5)C(c5ccc(Cl)cc5)[C@@H]4C3=O)cc2)cc1 (stereo partly drawn) |  | > 100 µM |  | > 100 µM |  | > 100 µM |  | > 100 µM |  | > 100 µM |  | > 100 µM |  | > 100 µM |  | > 100 µM |  | > 100 µM |  | 
18 | Oc1cc(C2OCCCO2)cc(O)c1O |  | > 100 µM |  | > 100 µM |  | > 100 µM |  | > 100 µM |  | > 100 µM |  | > 100 µM |  | > 100 µM |  | > 100 µM |  | > 100 µM |  | 
19 | Cc1cc(C)c(C2[C@H]3C(=O)N(c4ccc(Cc5ccc(N6C(=O)[C@@H]7ON(c8ccccc8)C(c8c(C)cc(C)cc8C)[C@@H]7C6=O)cc5)cc4)C(=O)[C@H]3ON2c2ccccc2)c(C)c1 (stereo partly drawn) |  | > 100 µM |  | > 100 µM |  | > 100 µM |  | > 100 µM |  | > 100 µM |  | > 100 µM |  | > 100 µM |  | > 100 µM |  | > 100 µM |  | 
